US11179348B2, “Combination comprising pterostilbene for the treatment of cancer” (FUNDACIÓN UNIVERSIDAD CATÓLICA DE VALENCIA SAN VICENTE …, priority 2015, dated 2021)

Assays:
human breast cancer = details: 20 μM Pter, 24 h, in vitro; cited from earlier work
MelJuso melanoma cells = assay: Nrf2- and redox state-related enzyme activities and metabolites in MelJuso cells growing in vivo; design: species or system human; details: in vivo +Pter, day 35
Experimental: Transfection of the Red Fluorescence Protein.
First the pDsRed-2 vector (Clontech Laboratories Inc., Palo Alto, Calif.) was used, as previously described for A375 melanoma cells (Mena, S. et al. J Transl Med 10, 8 (2012)), to engineer A2058, MeWo and MelJuso melanoma clones stably expressing the RFP. Isolation of A2058-RFP, MeWo-RFP or MelJuso-RFP cells from the growing xenografts was performed by laser microdissection and high-performance cell sorting as previously described in detail (Mena, S. et al. J Transl Med 10, 8 (2012)).
(§1) To measure enzyme activity, isolated tumor cells were homogenized in 0.1 M phosphate buffer (pH 7.2) at 4° C. GCL and GSS activities were measured as described previously (Obrador, E. et al. Hepatology 35, 74-81 (2002)). GPX (selenium dependent) activity was measured as described by Flohé and Gunzler (Flohe, L. & Gunzler, W. A. Methods Enzymol 105, 114-121 (1984)) using H2O2 as a substrate. GSR activity was determined as described by Akerboom and Sies (Akerboom, T. P. et al, Bull Eur Physiopathol Respir 17 Suppl, 221-227 (1981)). GGT activity was measured as described previously (Obrador, E. et al. Hepatology 35, 74-81 (2002)). GST activity was measured using an assay kit from Sigma. TXNRD activity, defined by the concentration of sodium-lipoate (disulfide) reduced to dehydrolipoate (dithiol) per milligram protein, was measured as previously described (Javvadi, P. et al. Cancer Res 70, 1941-1950 (2010)). SOD activity was measured as described by Flohé and Otting (Flohe, L. & Otting, F. Methods Enzymol 105, 93-104 (1984).) using 2 mM cyanide in the assay medium to distinguish mangano-type enzyme (SOD2) from the cuprozinc type (SOD1). CAT activity was analyzed as described by Aebi (Aebi, H. Methods Enzymol 105, 121-126 (1984)). NOX activity was measured by chemiluminescence following the methodology of Wind et al. (Wind, S. et al. Comparative pharmacology of chemically distinct NADPH oxidase inhibitors. Br J Pharmacol 161, 885-898 (2010)). Protein concentration was determined with the Pierce BCA protein assay (Fisher Scientific, Waltham, Mass.).
Measurement of H2O2 and O2^⋅−.
Quantitative measurement of H2O2 and flow cytometry determination of O2^⋅− generation were performed as previously described (Benlloch, M. et al. J Biol Chem 281, 69-79 (2006)).
(§2) GSH, GSSG, NADP^+ and NADPH Determination.
(§3) GSH and GSSG were determined, following procedures previously described (Obrador, E. et al. PLoS One 9, e96466 (2014)), by LC/MS using the same equipment described above for pterostilbene determination. Cell processing was performed according to published methodology, where rapid N-ethylmaleimide derivatization was used to prevent GSH auto-oxidation (Asensi, M. et al. Anal Biochem 217, 323-328 (1994)). NADP^+ and NADPH were quantitated using an assay kit from Sigma (St. Louis, Mo.).

human melanoma cells = assay: Effect of pterostilbene on melanoma cell growth and viability in vitro; type: cell-based
HepG2 cells = assay: GSH levels and glutathione- and oxidative stress-related enzyme activities in HepG2 cells growing in vivo; design: species or system human; details: HepG2, in vivo Pter, day 35
Experimental: as §1, §2, §3
Isolation of Tumor Cells from Mouse Xenografts Using Enzymatic Digestion and a double Ficoll gradient.
To maximize the amount of isolated cells, avoiding the use of RFP-transfected cells and subsequent laser microdissection, an alternative methodology was set up. To maximize cell yield and viability the following combination of enzymes was used: collagenase III (200 U/ml; Sigma-Aldrich), DNase I (200 U/ml; Sigma-Aldrich) and trypsin (5 mg/ml; Invitrogen), and a non-enzymatic dissociation buffer (NEDB, Invitrogen). Briefly, mice were killed, and tumors were removed (avoiding skin, muscle and fat) into cold culture media and processed immediately. The tumors were minced into 1-3 mm fragments, which were then incubated with the dissociation solution (see above) for 30 min at 37° C. The tumor fragments were mixed up and down every 10 min using a […] micropipette with a tip cut to a diameter adapted to tissue fragment size. After each incubation period, the fragments were filtered through a […] nylon mesh cell strainer (BD Biosciences, San Diego, Calif., USA). The released cells were centrifuged at 1200 r.p.m. for 2 min and stored in cold CO2-independent medium with 30% FCS at […]. Fresh dissociation solution was added to the remaining tissue fragments for 30 min. Dissociation was stopped when no additional cells were released. The fragments were pushed through a sieve and all cells from all incubation periods were pooled and counted.
The dissociated cells were layered onto a double Ficoll gradient (Histopaque; Sigma-Aldrich; densities 1.077 and 1.119) and spun at 700 g for 30 min at room temperature. Cells removed from both interfaces were pooled and washed two times in CO2-independent medium and stored at 4° C. Debris and red blood cell elimination was improved with the dual-density gradient. […]

## COc1cc(/C=C/c2ccc(O)cc2)cc(OC)c1 [Pter, trans-3,5-dimethoxy-4′-hydroxystilbene]
Human breast cancer
  decrease in tumor cell viability: ~25%
MelJuso melanoma cells
  CAT: 1.1 ± 0.3 mU/10^6 cells
  G6PDH: 366 ± 63 mU/10^6 cells
  GCL: 49 ± 12 mU/10^6 cells
  GGT: 15.9 ± 3.5 mU/10^6 cells
  GPX: 2.1 ± 0.5 mU/10^6 cells
  GSH: 10.8 ± 2.9 nmol/10^6 cells
  GSH/GSSG: 108 ± 17
  GSR: 5.1 ± 1.0 mU/10^6 cells
  GSS: 7.8 ± 1.5 mU/10^6 cells
  GSSG: 0.1 ± 0.04 nmol/10^6 cells
  GST: 4.7 ± 1.3 mU/10^6 cells
  H2O2: 0.8 ± 0.2 nmol/10^6 cells × min
  IDH: 1.5 ± 0.4 U/10^6 cells
  ME: 25 ± 7 mU/10^6 cells
  NADPH: 0.05 ± 0.02 nmol/mg prot
  NADPH/NADP^+: 1.7 ± 0.3
  NADP^+: 0.03 ± 0.01 nmol/mg prot
  NOX: 142 ± 37 R.L.U./10^6 cells
  O2^−: 5.0 ± 1.3 ΔFL1, a.u.
  SOD1: 0.4 ± 0.2 U/10^6 cells
  SOD2: 0.1 ± 0.05 U/10^6 cells
  TXN: 0.3 ± 0.1 μg/10^6 cells
  TXNRD: 0.6 ± 0.1 U/10^6 cells
Human melanoma cells; human melanoma cells, 60 min incubation
  pterostilbene levels in culture medium during incubation: remained unchanged
Human melanoma cells; pterostilbene 15 μM, 60 min each 24 h
  melanoma cell proliferation and viability in vitro: nor tumor cell proliferation neither viability were significantly affected
HepG2 cells
  CAT: 1.1 ± 0.3 mU/10^6 cells
  GCL: 50 ± 15 mU/10^6 cells
  GSH: 8.5 ± 2.6 nmol/10^6 cells
  GSS: 4.8 ± 0.9 mU/10^6 cells
  GSSG: 0.3 ± 0.1 nmol/10^6 cells
  SOD1: 0.1 ± 0.02 U/10^6 cells
  SOD2: 0.02 ± 0.01 U/10^6 cells
